# Experimental data published in patent US11400106B2, “Methods for inhibiting microbe growth” (priority 2018, dated 2022).
# Like-named read-outs stand apart in the source and are kept apart here.
# What was measured:
# E. coli = assay: microbe, parasite or virus in culture; type: cell-based, Escherichia coli; conditions: for MIC: Escherichia coli, 18 h, read-out: MIC, E. coli, MHB−
# Method: (§1) In the following experiments, bacterial cells were cultured in 96-well microtiter plates in cation-adjusted Mueller-Hinton Broth (MHB) for 18 h at 37° C. The main strains used were E. coli (K-12 BW25113) (placed in stationary incubator) and S. aureus (Newman Strain) (incubated at 250 r.p.m). Knockout strains (ΔtolcC and ΔychM) were used from the Keio knockout collection (Baba et al., Construction of Escherichia coli K-12 in-frame, single-gene knockout mutants: the Keio collection. Mol Syst Biol 2, 2006 0008, doi:10.1038/msb4100050 (2006)). For MIC determination and checkerboard analyses, Clinical & Laboratory Standards Institute (CLSI) protocol was used. […] DiSC3 loading of S. aureus cells was performed as previously described (Farha et al., Collapsing the proton motive force to identify synergistic combinations against Staphylococcus aureus. Chemistry & biology 20, 1168-1178, doi:10.1016/j.chembiol.2013.07.006 (2013)). CCCP concentration of 20 μM was used. pH adjustments were made by addition of HCl or NaOH. INT assay and ATP bioluminescence assays were performed as previously described (Farha et al., Collapsing the proton motive force to identify synergistic combinations against Staphylococcus aureus. Chemistry & biology 20, 1168-1178, doi:10.1016/j.chembiol.2013.07.006 (2013)). For chemical-genomic studies, the Keio library was grown overnight in cation-adjusted MHB broth, in 384-well plates. From these, treatment plates (25 mM sodium bicarbonate, or a sterile water control) were inoculated and grown for 15 hours at 37° C., in a stationary incubator. Data was normalized according to Mangat et al (Mangat et al., Rank ordering plate data facilitates data visualization and normalization in high-throughput screening. J Biomol Screen 19, 1314-1320, doi:10.1177/1087057114534298 (2014)), with gene products and GO terms mined from EcoCyc. The GFP promoter library (Keseler et al., EcoCyc: fusing model organism databases with systems biology. Nucleic Acids Res 41, D605-612, doi:10.1093/nar/gks1027 (2013)) was grown for 18 hours at ambient temperature with the same inoculation strategy as with the Keio collection. The analysis pipeline of Zaslaver et al (Zaslaver et al., A comprehensive library of fluorescent transcriptional reporters for Escherichia coli. Nat Methods 3, 623-628, doi:10.1038/nmeth895 (2006)) was used to generate maps of promoter activity, from which lists of promoters with increased or decreased activity were compiled.
# (§2) Fold enhancement in MICs in the media supplemented with sodium bicarbonate is represented by a positive fold, whereas suppression of activity is represented by a negative fold.
# (§3) The effect of sodium bicarbonate on the activity of additional antibacterial agents was investigated. Clinical isolates of various bacteria were obtained from the ATCC and the IHMA.
# (§4) The effect of sodium bicarbonate on the activity of cationic antiseptic agents was investigated. Clinical isolates of various bacteria were obtained from the ATCC and the IHMA.
# S. aureus [1] = assay: FIC index of pentamidine combined with various salts (checkerboard); type: cell-based, Staphylococcus aureus; conditions: combination of pentamidine isethionate with each salt; FICI≤0.5 synergy, 1-2 additivity, >4 antagonism
# Method: as §1
# S. aureus [2] = assay: microbe, parasite or virus in culture; conditions: for MIC: Staphylococcus aureus, 18 h, read-out: MIC, S. aureus, MHB−
# Method: as §1, §2, §3, §4
# [3] = E. coli, salt at 25 mM, pH adjusted to 7.4
# [4] = antibiotic agents, MHB in the absence of sodium bicarbonate
# [5] = antibiotic agents, MHB in the presence of 25 mM sodium bicarbonate
# [6] = MHB in the presence of 25 mM sodium bicarbonate
smiles,measurement,setting,value
OB(O)O [Boric acid],MIC of dirithromycin in the presence of the salt,E. coli,128 mg/L
same,FIC Index (with pentamidine in S. aureus),S. aureus [1],1
O=S(=O)(O)CCO [Isethionic acid],MIC of dirithromycin in the presence of the salt,E. coli; [3],128 mg/L
same,FIC Index (with pentamidine in S. aureus),S. aureus [1],2
CC(=O)[O-].[Na+] [Sodium acetate],MIC of dirithromycin in the presence of the salt,E. coli,64 mg/L
same,FIC Index (with pentamidine in S. aureus),S. aureus [1],2
[Br-].[Na+] [Sodium bromide],MIC of dirithromycin in the presence of the salt,E. coli; [3],128 mg/L
same,FIC Index (with pentamidine in S. aureus),S. aureus [1],2
[Cl-].[Na+] [Sodium chloride],MIC of dirithromycin in the presence of the salt,E. coli; [3],128 mg/L
same,FIC Index (with pentamidine in S. aureus),S. aureus [1],2
CC[C@H]1OC(=O)[C@H](C)C(=O)[C@H](C)[C@@H](O[C@@H]2O[C@H](C)C[C@H](N(C)C)[C@H]2O)[C@](C)(OC)C[C@@H](C)C(=O)[C@H](C)[C@H]2N(CCCCn3cnc(-c4cccnc4)c3)C(=O)O[C@]12C [Telithromycin],"MIC, E. coli, MHB+",E. coli,16 μg of antimicrobial agent/mL of buffer
same,MIC,E. coli; [4],> 128 mg/L
same,"MIC, S. aureus, MHB+",S. aureus [2],0.5 μg of antimicrobial agent/mL of buffer
same,MIC,S. aureus [2],4 mg/L
C=C(NC(=O)C(=C)NC(=O)c1csc(C2=N[C@@H]3c4csc(n4)[C@H]4NC(=O)c5csc(n5)[C@H]([C@](C)(O)[C@@H](C)O)NC(=O)[C@H]5CSC(=N5)/C(=C/C)NC(=O)[C@H]([C@@H](C)O)NC(=O)c5csc(n5)[C@]3(CC2)NC(=O)[C@H](C)NC(=O)C(=C)NC(=O)[C@H](C)NC(=O)[C@H]([C@@H](C)CC)N[C@@H]2C=Cc3c([C@H](C)O)cc(nc3[C@H]2O)C(=O)O[C@@H]4C)n1)C(N)=O [Thiostrepton],MIC,E. coli,> 128 mg/L
same,"MIC, E. coli, MHB+",E. coli; [5],>128 μg of antimicrobial agent/mL of buffer
same,MIC,S. aureus [2],0.5 mg/L
same,"MIC, S. aureus, MHB+",S. aureus [2]; [5],0.12 μg of antimicrobial agent/mL of buffer
CC1(C)S[C@@H]2[C@H](NC(=O)[C@H](C(=O)O)c3ccsc3)C(=O)N2[C@H]1C(=O)O [Ticarcillin],"MIC, E. coli, MHB+",E. coli,64 μg of antimicrobial agent/mL of buffer
same,MIC,E. coli; [4],32 mg/L
same,"MIC, S. aureus, MHB+",S. aureus [2],32 μg of antimicrobial agent/mL of buffer
same,MIC,S. aureus [2],8 mg/L
NC[C@H]1O[C@H](O[C@H]2[C@H](O)[C@@H](O[C@H]3O[C@H](CO)[C@@H](O)[C@H](N)[C@H]3O)[C@H](N)C[C@@H]2N)[C@H](N)C[C@@H]1O [Tobramycin],"MIC, E. coli, MHB+",E. coli,0.25 μg of antimicrobial agent/mL of buffer
same,MIC,E. coli; [4],0.25 mg/L
same,"MIC, S. aureus, MHB+",S. aureus [2],0.5 μg of antimicrobial agent/mL of buffer
same,MIC,S. aureus [2],0.25 mg/L
Oc1cc(Cl)ccc1Oc1ccc(Cl)cc1Cl [Triclosan],"MIC, E. coli, MHB+",E. coli,0.125 μg of antimicrobial agent/mL of buffer
same,MIC,E. coli; [4],0.125 mg/L
same,"MIC, S. aureus, MHB+",S. aureus [2],0.062 μg of antimicrobial agent/mL of buffer
same,MIC,S. aureus [2],0.062 mg/L
CN[C@H](CC(C)C)C(=O)N[C@H]1C(=O)N[C@@H](CC(N)=O)C(=O)N[C@H]2C(=O)N[C@H]3C(=O)N[C@H](C(=O)N[C@H](C(=O)O)c4cc(O)cc(O)c4-c4cc3ccc4O)[C@H](O)c3ccc(c(Cl)c3)Oc3cc2cc(c3O[C@@H]2O[C@H](CO)[C@@H](O)[C@H](O)[C@H]2O[C@H]2C[C@](C)(N)[C@H](O)[C@H](C)O2)Oc2ccc(cc2Cl)[C@H]1O [Vancomycin],MIC,E. coli,256 mg/L
same,"MIC, E. coli, MHB+",E. coli; [6],256
same,"MIC, S. aureus, MHB+",S. aureus [2]; [6],4
same,MIC,S. aureus [2],1 mg/L
O=C(O)c1ccc(O)cc1 [p-hydroxybenzoate],"Fold, E. coli",E. coli,1
same,"MIC, E. coli, MHB",E. coli,64 μg of antimicrobial agent/mL of buffer
same,"MIC, E. coli, MHB+",E. coli,64 μg of antimicrobial agent/mL of buffer
same,"MIC, S. aureus, MHB","S. aureus [2]; antiseptic agents, MHB in the absence of sodium bicarbonate",16 μg of antimicrobial agent/mL of buffer
same,"MIC, S. aureus, MHB+","S. aureus [2]; antiseptic agents, MHB in the presence of 25 mM sodium bicarbonate",16 μg of antimicrobial agent/mL of buffer
same,"Fold, S. aureus","S. aureus [2]; antiseptic agents, fold shift in MIC",1
Cc1cc(NS(=O)(=O)c2ccc(N)cc2)no1 [sulfamethoxazole],effect of 25 mM sodium bicarbonate on antibacterial activity,E. coli,remained largely unchanged
same,effect of 25 mM sodium bicarbonate on antibacterial activity,"S. aureus [2]; S. aureus, result in words",remained largely unchanged
